{"source": "patent EP4792817A1", "about": "“COMPOUND AND METHOD FOR TREATING AND/OR […] CANCER OR PR[…] THEREOF” (EnKang Pharmaceuticals (Guangzhou), Ltd., priority 2023, dated 2025)", "key": {"[1]": {"settings": "for plasma drug concentrations above the LLOQ: topical gel 0.008-0.06 mg/cm^2, LLOQ 0.02 ng/mL"}, "[2]": {"system": "TE.354.T cells (human cutaneous basal cell carcinoma)", "experiment": "cells", "settings": "72 h, read-out: half-maximal inhibitory concentration", "description": "The percent inhibition rate of each concentration group was calculated using the following formula: [Inhibition rate = (1 - T/C) × 100%], and the half-maximal inhibitory concentration (IC50) was calculated."}, "[3]": {"experiment": "not given", "remark": "listed apart in the source"}, "COLO-16 cells [4]": {"system": "COLO-16 cells", "settings": "drug substance 0.8 mg/kg; intragastric administration, once every other day; after 21 days of treatment"}, "[5]": {"settings": "20 °C"}, "SCL-1 cells": {"system": "SCL-1 cells", "settings": "48 hrs", "description": "(§1) The experimental procedures were as follows: The cells were subcultured in a complete medium containing 10% FBS in an incubator at 37 °C with 5% CO2 and saturated humidity. The cell density was adjusted to (3-5) × 10^4 cells/mL using a complete medium containing 10% FBS. The cell suspension was added to the wells of a 96-well culture plate at 100 µL/well, and the plate was incubated in an incubator at 37 °C with 5% CO2 and saturated humidity overnight (for about 16-24 hrs). Various dose groups of the test substance and a solvent control group were set. On the next day, the original culture medium was discarded. Subsequently, 20% FBS-containing complete medium was added at 100 µL/well, and the test substance or solvent in FBS-free medium was then added at 100 µL/well, resulting in a final FBS concentration of 10%. […]\n(§2) After incubation for 48 hrs under the experimental conditions, the supernatant was discarded, and 110 µL of CCK-8 working solution (100 µL of 10% FBS-containing complete medium and 10 µL of CCK-8 solution) were added to each well. The cells were further incubated for 4 hrs, and the optical density value at a wavelength of 450 nm (A450) was then measured for each well using a microplate reader. […]"}, "A431 cells": {"system": "A431 cells", "settings": "48 hrs", "description": "as §1, §2"}, "[6]": {"system": "human liver cancer HepG2 cells", "settings": "Patent No. CN 104736157 A; cited from earlier work"}, "COLO-16 cells [7]": {"system": "COLO-16 cells", "experiment": "cells", "settings": "for IC50: test concentrations in ng/mL", "description": "The experimental procedures were as follows: The cells were subcultured in a complete medium containing 10% FBS in an incubator at 37 °C with 5% CO2 and saturated humidity. The cell density was adjusted to (3-5) × 10^4 cells/mL using a complete medium containing 10% FBS. The cell suspension was added to the wells of a 96-well culture plate at 100 µL/well, and the plate was incubated in an incubator at 37 °C with 5% CO2 and saturated humidity overnight (for about 16-24 hrs). Various dose groups of the test substance and a solvent control group were set. On the next day, the original culture medium was discarded. Subsequently, 20% FBS-containing complete medium was added at 100 µL/well, and the test substance or solvent in FBS-free medium was then added at 100 µL/well, resulting in a final FBS concentration of 10%. Meanwhile, a negative control group was set: each well received 100 µL of 20% FBS-containing complete medium + 100 µL of incomplete medium containing cells, resulting in a final FBS concentration of 10%. A zero adjustment group (background) was also set: 200 µL of the culture medium alone (100 µL of 20% FBS-containing complete medium + 100 µL of incomplete medium), without drugs and cells. For each concentration group, four replicate wells were set.\nAfter incubation for 48 hrs under the experimental conditions, the supernatant was discarded, and 110 µL of CCK-8 working solution (100 µL of 10% FBS-containing complete medium and 10 µL of CCK-8 solution) were added to each well. The cells were further incubated for 4 hrs, and the optical density value at a wavelength of 450 nm (A450) was then measured for each well using a microplate reader. The average value for the wells of each treatment group (T) was compared with the average value for the negative control wells (C). The percent inhibition rate of each concentration group was calculated using the following formula: [Inhibition rate = (1 - T/C) × 100%], and the half-maximal inhibitory concentration (IC50) was calculated."}}, "note": "Like-named read-outs stand apart in the source and are kept apart here."}
{"smiles": "CO[C@H]1[C@H](O)[C@H](O[C@H]2CC[C@@]3(C)[C@H](CC[C@@H]4[C@@H]3CC[C@]3(C)[C@@H](C5=CC(=O)OC5)CC[C@]43O)C2)O[C@@H](C)[C@@H]1O", "note": "[17β-neriifolin]", "values": [{"measurement": "plasma drug concentrations above the LLOQ", "setting": "[1]; four Australian subjects", "result": "0.021 to 0.101", "unit": "ng/mL"}, {"measurement": "plasma drug concentrations above the LLOQ", "setting": "[1]; seven Chinese subjects", "result": "0.022 to 0.106", "unit": "ng/mL"}, {"measurement": "dose dependence of systemic exposure", "setting": "[1]; topical gel, 0.008-0.06 mg/cm^2 dose range", "result": "No dose-dependent increase"}, {"measurement": "IC50", "setting": "[2]", "result": "~0.01", "unit": "µg/mL"}, {"measurement": "Saturation solubility", "setting": "10% ethanol", "result": 160, "unit": "µg/mL"}, {"measurement": "Saturation solubility", "setting": "10% propylene glycol", "result": 80, "unit": "µg/mL"}, {"measurement": "Saturation solubility", "setting": "20% ethanol", "result": 380, "unit": "µg/mL"}, {"measurement": "Saturation solubility", "setting": "20% propylene glycol", "result": 100, "unit": "µg/mL"}, {"measurement": "Saturation solubility", "setting": "30% ethanol", "result": 910, "unit": "µg/mL"}, {"measurement": "Saturation solubility", "setting": "30% propylene glycol", "result": 420, "unit": "µg/mL"}, {"measurement": "Saturation solubility", "setting": "40% ethanol", "result": 2170, "unit": "µg/mL"}, {"measurement": "Saturation solubility", "setting": "40% propylene glycol", "result": 750, "unit": "µg/mL"}, {"measurement": "solubility", "setting": "[3]", "result": "~70", "unit": "µg/mL"}, {"measurement": "tumor inhibition rate", "setting": "COLO-16 cells [4]", "result": "greater than 80%"}, {"measurement": "Dissolution behavior", "setting": "[5]; Ethanol concentration 20%, sample concentration 8 mg/g", "result": "Dissolved"}, {"measurement": "Dissolution behavior", "setting": "[5]; Ethanol concentration 45%, sample concentration 20 mg/g", "result": "Dissolved"}, {"measurement": "Dissolution behavior", "setting": "[5]; Ethanol concentration 50%, sample concentration 24 mg/g", "result": "Dissolved"}, {"measurement": "Dissolution behavior", "setting": "[5]; Ethanol concentration 66%, sample concentration 32 mg/g", "result": "Dissolved"}, {"measurement": "Dissolution behavior", "setting": "[5]; Ethanol concentration 75%, sample concentration 40 mg/g", "result": "Dissolved"}, {"measurement": "Dissolution behavior", "setting": "[5]; Ethanol concentration 100%, sample concentration 50 mg/g", "result": "Dissolved"}, {"measurement": "growth inhibitory effects", "setting": "SCL-1 cells", "result": "strong growth inhibitory effects"}, {"measurement": "growth inhibitory effects", "setting": "A431 cells", "result": "strong growth inhibitory effects"}, {"measurement": "cell cycle arrest and apoptosis", "setting": "[6]", "result": "induce cell cycle arrest and apoptosis"}, {"measurement": "Inhibition rate%", "setting": "COLO-16 cells [7]; 2.5 ng/mL, 48 hrs", "result": 6.9, "unit": "%"}, {"measurement": "Inhibition rate%", "setting": "COLO-16 cells [7]; 25 ng/mL, 48 hrs", "result": 72.7, "unit": "%"}, {"measurement": "Inhibition rate%", "setting": "COLO-16 cells [7]; 50 ng/mL, 48 hrs", "result": 77.9, "unit": "%"}, {"measurement": "Inhibition rate%", "setting": "COLO-16 cells [7]; 100 ng/mL, 48 hrs", "result": 89.5, "unit": "%"}, {"measurement": "IC50", "setting": "COLO-16 cells [7]; 48 hrs", "result": 12.28}, {"measurement": "inhibition at 0.0025 µg/mL", "setting": "COLO-16 cells [7]; Homo sapiens, 48 h, read-out: Inhibition rate%, 2.5 ng/mL", "result": 9, "unit": "%"}, {"measurement": "inhibition at 0.025 µg/mL", "setting": "COLO-16 cells [7]; Homo sapiens, 48 h, read-out: Inhibition rate%, 25 ng/mL", "result": 57.3, "unit": "%"}, {"measurement": "inhibition at 0.05 µg/mL", "setting": "COLO-16 cells [7]; Homo sapiens, 48 h, read-out: Inhibition rate%, 50 ng/mL", "result": 74.5, "unit": "%"}, {"measurement": "inhibition at 0.1 µg/mL", "setting": "COLO-16 cells [7]; Homo sapiens, 48 h, read-out: Inhibition rate%, 100 ng/mL", "result": 85.3, "unit": "%"}, {"measurement": "IC50", "setting": "COLO-16 cells [7]; Homo sapiens, 48 h", "result": 0.0186, "unit": "µg/mL"}]}
